Numbered stars: 1 amine (or outer) side, 2 acyl side, 3 side chain; on linkers, the order of the positions; unused ones are H or OH. Square brackets hold non-standard residues; d marks the D form. Peptide text beside a SMILES is read from it. * marks the point of attachment. X3 = NC[C@H](OC(=O)C(F)(F)F)[C@H](N[*:1])C(=O)[*:2]; Phe(4-tBu) = CC(C)(C)c1ccc(C[C@H](N)C(=O)O)cc1; Dab(3S-OH) = NC[C@H](O)[C@H](N)C(=O)O; His(π-Me) = Cn1cncc1C[C@H](N)C(=O)O; 2Pal = N[C@@H](Cc1ccccn1)C(=O)O; ΔZArg = N=C(N)NCC/C=C(\N)C(=O)O; NMeK = CN[C@@H](CCCCN)C(=O)O; dOrn = NCCC[C@@H](N)C(=O)O; Abu = CC[C@H](N)C(=O)O; NH(CH2)4NH2 = NCCCCN*
What was measured:
[1] = system: Escherichia coli ATCC 25922; test: MIC, broth microdilution (CLSI), reference strain; conditions: CAMHB
[2] = target: N-type calcium channels (Cav2.2) (Rattus norvegicus (Rat), UniProt Q02294); test: biochemical; assay type: binding; conditions: class symbol; rat cerebral cortex, [125I]ω-conotoxin GVIA 0.001 nM, 30 minutes at room temperature; read-out: IC50 Cav2.2
[3] = system: Staphylococcus aureus ATCC 13709; test: MIC, broth microdilution (CLSI), reference strain; conditions: CAMHB
[4] = system: Acinetobacter baumannii ATCC 19606; test: MIC, broth microdilution (CLSI), reference strain; conditions: CAMHB
[5] = system: Pseudomonas aeruginosa ATCC 27853; test: MIC, broth microdilution (CLSI), reference strain; conditions: CAMHB

Structure (SMILES)	Ec: MIC Escherichia coli ATCC 25922 [1]	IC50 [2]	Sa: MIC Staphylococcus aureus ATCC 13709 [3]	Ab: MIC Acinetobacter baumannii ATCC 19606 [4]	Pa: MIC Pseudomonas aeruginosa ATCC 27853 [5]
C[C@H](NC(=O)[C@@H](NC(=O)[C@@H](N)CCCCN)[C@@H](O)CN)C(=O)NCC(=O)N[C@H](CCCN)C(=O)N1CCC[C@H]1C(=O)N[C@@H](Cc1ccc(O)cc1)C(=O)N[C@@H](CCCCN)C(=O)N/C(=C\CCNC(=N)N)C(=O)N[C@@H](CCCCN)C(=O)NCCCCN [24.20] (H-K[Dab(3S-OH)]AG[dOrn]PYK[ΔZArg]K-{NH(CH2)4NH2})	++ (≤8 μg/mL)	< 30 nM	++ (≤8 μg/mL)	− (>32 μg/mL)	− (>32 μg/mL)
C[C@H](NC(=O)[C@@H](NC(=O)[C@@H](NC(=O)[C@@H](N)CCCCN)[C@@H](O)CN)[C@@H](O)CN)C(=O)N[C@H](CCCN)C(=O)N1CCC[C@H]1C(=O)N[C@@H](Cc1cnc[nH]1)C(=O)N[C@@H](CCCCN)C(=O)N/C(=C\CCNC(=N)N)C(=O)N[C@@H](CCCCN)C(=O)NCCCCN [22.24] (H-K[Dab(3S-OH)][Dab(3S-OH)]A[dOrn]PHK[ΔZArg]K-{NH(CH2)4NH2})	− (>32 μg/mL)	< 30 nM	++ (≤8 μg/mL)	− (>32 μg/mL)	− (>32 μg/mL)
CC[C@H](NC(=O)[C@@H](NC(=O)[C@@H](N)CCCCN)[C@@H](O)CN)C(=O)NCC(=O)N[C@H](CCCN)C(=O)N1CCC[C@H]1C(=O)N[C@@H](Cc1cnc[nH]1)C(=O)N[C@@H](CCCCN)C(=O)N/C(=C\CCNC(=N)N)C(=O)O [28.2] (H-K[Dab(3S-OH)][Abu]G[dOrn]PHK[ΔZArg]-OH)	− (>32 μg/mL)	> 300 nM	+ (≤32 μg/mL)	− (>32 μg/mL)	− (>32 μg/mL)
CN[C@@H](CCCCN)C(=O)N[C@H](C(=O)N[C@H](C(=O)NCC(=O)N[C@H](CCCN)C(=O)N1CCC[C@H]1C(=O)N[C@@H](Cc1cnc[nH]1)C(=O)N[C@@H](CCCCN)C(=O)N/C(=C\CCNC(=N)N)C(=O)N[C@@H](CCCCN)C(=O)NCCCCN)[C@@H](O)CN)[C@@H](O)CN [22.3] (H-[NMeK][Dab(3S-OH)][Dab(3S-OH)]G[dOrn]PHK[ΔZArg]K-{NH(CH2)4NH2})	++ (≤8 μg/mL)	< 30 nM	++ (≤8 μg/mL)	+ (≤32 μg/mL)	+ (≤32 μg/mL)
CC[C@H](NC(=O)[C@@H](NC(=O)[C@@H](N)CCCCN)[C@@H](O)CN)C(=O)NCC(=O)N[C@H](CCCN)C(=O)N1CCC[C@H]1C(=O)N[C@@H](Cc1cnc[nH]1)C(=O)N[C@@H](CCCCN)C(=O)N/C(=C\CCNC(=N)N)C(=O)N[C@@H](CCCCN)C(=O)NCCCCN [28.1] (H-K[Dab(3S-OH)][Abu]G[dOrn]PHK[ΔZArg]K-{NH(CH2)4NH2})	++ (≤8 μg/mL)	< 30 nM	++ (≤8 μg/mL)	− (>32 μg/mL)	− (>32 μg/mL)
N=C(N)NCC/C=C(\NC(=O)[C@H](CCCCN)NC(=O)[C@H](Cc1cnc[nH]1)NC(=O)[C@@H]1CCCN1C(=O)[C@@H](CCCN)NC(=O)CNC(=O)[C@@H](NC(=O)[C@@H](NC(=O)[C@@H](N)CCCCN)[C@@H](O)CN)[C@H](CN)OC(=O)C(F)(F)F)C(=O)N[C@@H](CCCCN)C(=O)NCCCCN [224.1] (H-K[Dab(3S-OH)][X3]G[dOrn]PHK[ΔZArg]K-{NH(CH2)4NH2})	++ (≤8 μg/mL)	< 30 nM	++ (≤8 μg/mL)	− (>32 μg/mL)	+ (≤32 μg/mL)
C[C@H](NC(=O)[C@@H](NC(=O)[C@@H](N)CCCCN)[C@@H](O)CN)C(=O)NCC(=O)N[C@H](CCCN)C(=O)N1CCC[C@H]1C(=O)N[C@@H](CC(N)=O)C(=O)N[C@@H](CCCCN)C(=O)N/C(=C\CCNC(=N)N)C(=O)N[C@@H](CCCCN)C(=O)NCCCCN [24.22] (H-K[Dab(3S-OH)]AG[dOrn]PNK[ΔZArg]K-{NH(CH2)4NH2})	++ (≤8 μg/mL)	< 30 nM	++ (≤8 μg/mL)	− (>32 μg/mL)	− (>32 μg/mL)
C[C@H](NC(=O)[C@@H](NC(=O)[C@@H](N)CCCCN)[C@@H](O)CN)C(=O)NCC(=O)N[C@H](CCCN)C(=O)N1CCC[C@H]1C(=O)N[C@@H](Cc1cnc[nH]1)C(=O)N[C@@H](CCCCN)C(=O)N/C(=C\CCNC(=N)N)C(=O)N[C@@H](CCCCN)C(=O)NCCCCN [24.1] (H-K[Dab(3S-OH)]AG[dOrn]PHK[ΔZArg]K-{NH(CH2)4NH2})	++ (≤8 μg/mL)	< 30 nM	++ (≤8 μg/mL)	+ (≤32 μg/mL)	+ (≤32 μg/mL)
C[C@H](NC(=O)[C@@H](NC(=O)[C@@H](N)CCCCN)[C@@H](O)CN)C(=O)NCC(=O)N[C@H](CCCN)C(=O)N1CCC[C@H]1C(=O)N[C@@H](Cc1ccc(C(C)(C)C)cc1)C(=O)N[C@@H](CCCCN)C(=O)N/C(=C\CCNC(=N)N)C(=O)O [24.93] (H-K[Dab(3S-OH)]AG[dOrn]P[Phe(4-tBu)]K[ΔZArg]-OH)	++ (≤8 μg/mL)	> 300 nM	++ (≤8 μg/mL)	− (>32 μg/mL)	− (>32 μg/mL)
C[C@H](NC(=O)[C@@H](NC(=O)[C@@H](N)CCCCN)[C@@H](O)CN)C(=O)NCC(=O)N[C@H](CCCN)C(=O)N1CCC[C@H]1C(=O)N[C@@H](Cc1ccccn1)C(=O)N[C@@H](CCCCN)C(=O)N/C(=C\CCNC(=N)N)C(=O)N[C@@H](CCCCN)C(=O)NCCCCN [24.17] (H-K[Dab(3S-OH)]AG[dOrn]P[2Pal]K[ΔZArg]K-{NH(CH2)4NH2})	++ (≤8 μg/mL)	< 30 nM	++ (≤8 μg/mL)	− (>32 μg/mL)	− (>32 μg/mL)
CC(C)[C@H](NC(=O)[C@@H](NC(=O)[C@@H](N)CCCCN)[C@@H](O)CN)C(=O)NCC(=O)N[C@H](CCCN)C(=O)N1CCC[C@H]1C(=O)N[C@@H](Cc1cnc[nH]1)C(=O)N[C@@H](CCCCN)C(=O)N/C(=C\CCNC(=N)N)C(=O)N[C@@H](CCCCN)C(=O)NCCCCN [212.1] (H-K[Dab(3S-OH)]VG[dOrn]PHK[ΔZArg]K-{NH(CH2)4NH2})	++ (≤8 μg/mL)	< 30 nM	++ (≤8 μg/mL)	− (>32 μg/mL)	− (>32 μg/mL)
CC[C@H](C)[C@H](NC(=O)[C@@H](NC(=O)[C@@H](N)CCCCN)[C@@H](O)CN)C(=O)NCC(=O)N[C@H](CCCN)C(=O)N1CCC[C@H]1C(=O)N[C@@H](Cc1cnc[nH]1)C(=O)N[C@@H](CCCCN)C(=O)N/C(=C\CCNC(=N)N)C(=O)O [27.2] (H-K[Dab(3S-OH)]IG[dOrn]PHK[ΔZArg]-OH)	− (>32 μg/mL)	> 300 nM	+ (≤32 μg/mL)	− (>32 μg/mL)	− (>32 μg/mL)
C[C@H](NC(=O)[C@@H](NC(=O)[C@@H](N)CCCCN)[C@@H](O)CN)C(=O)NCC(=O)N[C@H](CCCN)C(=O)N1CCC[C@H]1C(=O)N[C@@H](Cc1cncn1C)C(=O)N[C@@H](CCCCN)C(=O)N/C(=C\CCNC(=N)N)C(=O)N[C@@H](CCCCN)C(=O)NCCCCN [24.14] (H-K[Dab(3S-OH)]AG[dOrn]P[His(π-Me)]K[ΔZArg]K-{NH(CH2)4NH2})	++ (≤8 μg/mL)	< 30 nM	++ (≤8 μg/mL)	− (>32 μg/mL)	+ (≤32 μg/mL)
CC[C@H](C)[C@H](NC(=O)[C@@H](NC(=O)[C@@H](N)CCCCN)[C@@H](O)CN)C(=O)NCC(=O)N[C@H](CCCN)C(=O)N1CCC[C@H]1C(=O)N[C@@H](Cc1cnc[nH]1)C(=O)N[C@@H](CCCCN)C(=O)N/C(=C\CCNC(=N)N)C(=O)N[C@@H](CCCCN)C(=O)NCCCCN [27.1] (H-K[Dab(3S-OH)]IG[dOrn]PHK[ΔZArg]K-{NH(CH2)4NH2})	++ (≤8 μg/mL)	< 30 nM	++ (≤8 μg/mL)	− (>32 μg/mL)	− (>32 μg/mL)
